“Also recorded” adds a separate entry of the source.
Key:
phosphotyrosine-JAK2 = assay: Inhibition of phosphotyrosine-JAK2 levels in tumor cell lines (Western blotting); type: cell-based, human; conditions: for levels of P-JAK2: 10 μM, 4 hours; for IC50: Wit tested as withacnistin mixture; for P-JAK2 levels: A549 cells (FIG. 8A)
Procedure: Western blotting. Treated cell samples were lysed in 30 mM HEPES, pH 7.5, 10 mM NaCl, 5 mM MgCl2, 25 mM NaF, 1 mM EGTA, 1% Triton X-100, 10% glycerol, 2 mM sodium orthovanadate, 10 μg/ml aprotinin, 10μ/ml soybean trypsin inhibitor, 25 μg/ml leupeptin, 2 mM PMSF, and 6.4 mg/ml p-nitrophenylphosphate. Phospho-STAT3, phospho-AKT, phospho-Src, and phospho-p42/p44 MAPK antibodies were obtained from Cell Signaling Technologies (Cambridge, Mass., USA). Phospho-JNK and whole STAT3 antibodies were purchased from Santa Cruz Biotechnology (Santa Cruz, Calif., USA); phospho-JAK2 antibody came from Upstate Biotechnology (Lake Placid, N.Y., USA). Membranes were blocked in either 5% milk in phosphate-buffered saline (PBS), pH 7.4, containing 0.1% Tween-20 (PBS-T) or 1% BSA in tris-buffered saline (TBS), pH 7.5, containing 0.1% Tween-20 (TBS-T). Phospho-specific antibodies (excepting P-MAPK and P-JNK) were incubated in 1% BSA in TBS-T while all other antibodies were diluted in 5% milk in PBS-T for either 2 h at room temperature or overnight at 4° C. HRP-conjugated secondary antibodies (Jackson ImmunoResearch, West Grove, Pa., USA) were diluted in 5% milk in either PBS-T or TBS-T at 1:1000 dilution for 1 h at room temperature. Western blots were visualized using enhanced chemiluminescence.
To this end, A549 cells (a human non-small-cell lung carcinoma line) were treated with either vehicle, cucurbitacin analogs A, B, E, or I, or withacnistin mixture (10 ∥M) for 4 hours and the cell lysates processed for Western blotting with antiphosphotyrosine STAT3 (Y705) antibody or antiphosphotyrosine JAK2 (Y1007, Y1008) antibody as described under Materials and Methods.
(§1) As further support of the specific antiphosphotyrosine STAT3, but not antiphosphotyrosine JAK2, activity of withacnistin, A549 cells, as well as two breast carcinoma cell lines (MDA-MB-435 and MDA-MB-468) that also express constitutively activated JAK2 and STAT3, were treated with the withacnistin mixture at various concentrations, and determined IC50 values of inhibition of STAT3 and JAK2 activation.

STAT3 = assay: Total STAT3 levels (STAT3 immunoprecipitation / immunoblot); type: cell-based, human; conditions: A549 cells
Procedure: STAT3 immunoprecipitation. A549 cells were treated for 4 hour with vehicle or the withacnistin mixture, then lysed in 150 mM HEPES, pH 7.5, 150 mM NaCl, 1 mM EDTA, 0.5% NP-40, 10% glycerol, 5 mM NaF, 1 mM DTT, 1 mM PMSF, 2 mM sodium orthovanadate, and 5 μg/ml leupeptin. Sample lysates were collected and cleared, then 500 μg of lysate was immunoprecipitated with 50 ng STAT3 antibody overnight at 4° C., then rocked with 25 μl Protein A/G PLUS agarose (Santa Cruz Biotechnology) for 1 hour at 4° C. Samples were washed four times with lysis buffer, then boiled in 2×SDS-PAGE sample buffer and run on 10% SDS-PAGE gel. Protein was transferred to nitrocellulose then blotted as above for both phospho-specific STAT3 and STAT3.
as §1, with “activation. […] In all three cell lines, JAK2 activation was not inhibited at withacnistin concentrations as high as 10 μM. […] Thus, in all three cell lines, withacnistin (Wit) inhibits specifically STAT3 but not JAK2 activation and Cuc A inhibits JAK2 but not STAT3 activation whereas Cuc I inhibits the activation of both STAT3 and JAK2.” for “activation.”

JAK2 = assay: Total JAK2 levels in A549 cells; type: cell-based, human; conditions: 10 μM, data not shown
Procedure: as §1, with “activation. […] In all three cell lines, JAK2 activation was not inhibited at withacnistin concentrations as high as 10 μM. […] Thus, in all three cell lines, withacnistin (Wit) inhibits specifically STAT3 but not JAK2 activation and Cuc A inhibits JAK2 but not STAT3 activation whereas Cuc I inhibits the activation of both STAT3 and JAK2.” for “activation.”

A549 tumors = assay: Antitumor activity in nude mouse xenograft model, A549; type: in vivo; conditions: nude mice, 1 mg/kg/day i.p., Wit = withacnistin mixture
From the text: Antitumor activity in the nude mouse tumor xenograft model. Nude mice (Charles River, Wilmington, Mass., USA) were maintained in accordance with the Institutional Animal Care and Use Committee (IACUC) procedures and guidelines. A549 cells were harvested, resuspended in PBS, and injected subcutaneously (s.c.) into the right and left flank (1×10^7 cells per flank) of 8-week-old female nude mice as reported previously (Blaskovich, M. A. et al. Cancer Res., 2003, 63:1270-1279). When tumors reached about 150 mm^3, animals were randomized (four animals per group; two tumors per animal) and dosed intraperitoneally (i.p.) either with cucurbitacin analogs (0.5 or 1 mg/kg/day, i.p.) in 20% DMSO in water or with an equal volume of vehicle control. The tumor volumes were determined by measuring the length (l) and the width (w) and calculating the volume (V=lw^2/2) as described previously (Blaskovich, M. A. et al. Cancer Res., 2003, 63:1270-1279). Statistical significance between control and treated animals were evaluated by using Student's t-test.
To determine the ability of the cucurbitacin analogs and withacnistin to inhibit tumor growth in vivo, the antitumor activity of the cucurbitacin analogs and withacnistin against both A549 and v-Src/3T3 tumors in a nude mouse xenograft model was evaluated. When the tumors became palpable (at volumes of approximately 100-150 mm^3), the mice were treated either with vehicle control or 1 mg/kg/day of the cucurbitacins or the withacnistin mixture. Tumor volumes were monitored by caliper measurement as previously described (Blaskovich, M. A. et al. Cancer Res., 2003, 63:1270-1279) and under Materials and Methods.

| SMILES | levels of P-JAK2 (phosphotyrosine-JAK2; A549 cells) | IC50 (phosphotyrosine-JAK2; A549 cells) [nM] | IC50 (phosphotyrosine-JAK2; MDA-MB-435 cells) [nM] | IC50 (phosphotyrosine-JAK2; MDA-MB-468 cells) [nM] | total STAT3 levels (STAT3; 10 μM, 4 hours) | total JAK2 levels (JAK2) | % Inhibition of tumor growth (A549 tumors) [%] | P-JAK2 levels (phosphotyrosine-JAK2) | total STAT3 levels (STAT3; by 24 hours, data not shown) |
| --- | --- | --- | --- | --- | --- | --- | --- | --- | --- |
| CC(=O)OC(C)(C)/C=C/C(=O)[C@](C)(O)[C@H]1[C@H](O)C[C@@]2(C)[C@@H]3CC=C4[C@@H](C[C@H](O)C(=O)C4(C)C)[C@]3(CO)C(=O)C[C@]12C [Cuc A, cucurbitacin A] | suppressed; also recorded: potently inhibited | 1500 ± 700 | 650 ± 50 | 860 | does not affect | none of the three compounds affects | 11.1 | – | – |
| CC(C)(O)/C=C/C(=O)[C@](C)(O)[C@H]1[C@H](O)C[C@@]2(C)[C@@H]3CC=C4[C@@H](C=C(O)C(=O)C4(C)C)[C@]3(C)C(=O)C[C@]12C [Cuc I, cucurbitacin I] | inhibited | 250 ± 90 | 180 ± 70 | 400 ± 260 | does not affect | none of the three compounds affects | 55.4 | suppressed the levels of both | – |
| CC(=O)OC[C@]12CC[C@H]3[C@@H](C[C@H]4O[C@]45[C@@H](O)C=CC(=O)[C@]35C)[C@@H]1CC[C@@H]2[C@H](C)[C@H]1CC(C)=C(C)C(=O)O1 [withacnistin] | – | > 10000 | > 10000 | > 10000 | without affecting | none of the three compounds affects | 73.1 | but not P-JAK2 | suppressed |

Reference: patent US20070191490A1, “Withacnistin compounds for treatment of cancer” (priority 2006, published 2007)
